From PMC7583056, “Synthesis, Characterisation and In Vitro Anticancer Activity of Catalytically Active Indole-Based Half-Sandwich Complexes” (Molecules, 2020)
Read-outs that look alike come from different tables or passages of the source.

Assays:
[1] = pKa determination by UV-Vis spectroscopy at increasing pH; assay type: physicochemical; settings: 6% acetonitrile/water v/v; for pKa: UV-Vis, aqua adduct, pH 7–12
Description: The pKa values for the complexes were measured by dissolving the compounds in 6% acetonitrile/water v/v (aqua adduct formed) and by recording the UV-Vis spectra of the samples at increasing pH (pH 7–12). pKa values of the complexes were calculated using Origin 2018 by plotting the absorbance at the corresponding wavelength against the pH and fitting it to the Boltzmann equation to obtain the inflection point. For complexes 2–4, the pKa values were calculated to be around 10 (Materials and Methods section and Table 1). The pKa of compound 1 could not be calculated, as the absorbance bands for the aqua- and the hydroxo- compounds overlap; however, changes could only be observed at pH values higher than 10. These pKa values are high, although such a decrease in acidity has been previously reported (generally attributed to an increased electron density on the metal centre). As a consequence of such high pKa, only the aqua adduct of the metal complexes is expected to be present at physiological pH (7.4), thus favouring the reaction between the metal complexes with possible ligands such as nucleobases or proteins.
Complexes 1–4 were dissolved in acetonitrile/H2O 6:94 v/v and UV-Vis spectra of the sample were recorded increasing the pH (pH 7–12). pKa vales of the complexes were calculated using Origin 2018 by plotting the absorbance against the pH.

9-ethylguanine (9-EtG) = experiment: Binding constant towards 9-EtG by 1H-NMR titration; settings: complex 1.1 mM in MeOD/D2O (1:1 v/v), non-linear fit
Description: Binding constant of complexes 1, 3 and 4 with 9-EtG were calculated using the non-linear ThordarsonFittingProgram (Table 1). The binding constant for complex 2 was not calculated due to solubility issues. The magnitude of the binding constants (10^3–10^4 M^−1) is low compared to the usually observed complexation constants in coordination chemistry (>>10^6 M^−1), and is in the range of binding constants observed in host-guest inorganic chemistry (e.g., via non-covalent interactions between a metalla-cage and an aromatic planar guest molecule).
The reactions of complexes 1–4 with 9-ethylguanine (9-EtG) and 9-methyladenine (9-MetA) were studied. MeOD solutions of complexes 1–4 (2.2 mM) were mixed with a solution of the corresponding nucleobase in D2O (4.4 mM) and the pH adjusted to 7.4 ± 0.2. Final concentrations of 1.1 mM for the complex and 2.2 mM for the nucleobase were obtained. ^1H-NMR spectra of the resulting mixture were recorded at t ≤ 10 min, 5 h and 24 h in MeOD/D2O (1:1 v/v).
A titration using 9-EtG at increasing concentrations was performed and the resulting samples were analysed using ^1H-NMR spectroscopy. Binding constants were calculated using the non-linear ThordarsonFittingProgram by plotting the chemical shift of the complex versus the concentration of 9-EtG. Alternatively, binding constant for complexes 3 and 4 was obtained by plotting the ratio of 9-EtG adduct/complex against the concentration of 9-EtG.

[2] = Stability in d6-DMSO by 1H-NMR; assay type: physicochemical; settings: 1.1 mM; for Time to reach equilibrium with second species (DMSO-adduct) / Release of the ind-py ligand (decoordination rate): 1H-NMR; for Stability in DMSO (in words): 24 h, after equilibrium with DMSO-adduct; for Release of the ind-py ligand (decoordination rate): over 24 h
Description: (§1) Owing to the limited aqueous solubility of the complexes, all the reactivity experiments were performed using a mixture MeOD/D2O (1:1 v/v) as a solvent. The stability of complexes 1–4 in MeOD/D2O was studied via ^1H-NMR spectroscopy over a period of 24 h. […] The stability of complexes 1–4 in dimethylsulfoxide (DMSO;1.1 mM) was also studied by ^1H-NMR spectroscopy over a period of 24 h (Figure S1). […] The ligand ind-py is also stable in MeOD/D2O over 24 h (Figure S1E).
Complexes 1–4 were also dissolved in d6-DMSO (1.1 mM) and ^1H-NMR spectra were recorded at t ≤ 10 min, 12 h and 24 h.

A2780 cells = experiment: Chemosensitivity assay (MTT) in A2780 cells; assay type: cell-based; settings: for Selectivity towards cancerous cells (A2780) versus normal cells (PNT2): from IC50 values A2780 vs PNT2
From the text: The antiproliferative activity of the ind-py ligand and of complexes 1–4 against ovarian cancer A2780 (cisplatin sensitive) and A2780cisR (cisplatin resistant) cell lines was studied. The IC50 values obtained for all the complexes are shown in Table 2, together with values for cisplatin, which was used as a positive control (untreated cells for 100% viability as negative control). […] One of the major limitations of existing anticancer drugs is their poor selectivity towards cancer cells. Comparing the response of the cancer cell lines to the normal PNT2 cells provides a preliminary indication towards the selectivity of the compounds.
In vitro chemosensitivity tests were performed against A2780, A2780cisR and PNT2 cells. Cells were routinely maintained as monolayer cultures in RPMI medium supplemented with 10% foetal calf serum, penicillin (100 I.U./mL) and streptomycin (100 μg/mL), sodium pyruvate (1 mM) and L-glutamine (2 mM). For chemosensitivity studies, cells were incubated in 96-well plates at a concentration of 7.5 × 10^3 cells per well and the plates were incubated for 24 h at 37 °C and a 5% CO2 humidified atmosphere prior to drug exposure.
Complexes were dissolved in DMSO to provide stock solutions, which were further diluted with media to provide a range of final concentrations. Drug-media solutions were added to cells (the final concentration of DMSO was less than 1% (v/v) in all cases) and incubated for 24 h at 37 °C and 5% CO2 humidified atmosphere. The drug-media was removed from the wells and the cells were washed with PBS (100 μL, twice), and 100 μL of complete fresh media were added to each well. The plates were further incubated for 48 h at 37 °C in a 5% CO2 humidified atmosphere to allow for a period of recovery. 3-(4,5-dimethylthiazol-2-yl)-2,5-diphenyltetrazolium bromide (MTT) (20 μL, 2.5 mg/mL) was added to each well and incubated for 2 h at 37 °C and 5% CO2 humidified atmosphere. All solutions were then removed and 100 μL of DMSO was added to each well in order to dissolve the purple formazan crystals. A Thermo Scientific Multiskan EX microplate photometer was used to measure the absorbance in each well at 570 nm. Cell survival was determined as the absorbance of treated cells divided by the absorbance of controls and expressed as a percentage. The IC50 values were determined from plots of % survival against drug concentration. Each experiment was repeated in triplicates of triplicates and a mean value was obtained and stated as IC50 (μM) ± SD. Cisplatin was also used as a positive control.

Solubility as observed = assay type: physicochemical; settings: MeOD/D2O 1:1 v/v, 1.1 mM
Description: as §1

[3] = 24 h exposure + 48 h recovery, MTT, mean ± SD, read-out: IC50 A2780
[4] = A2780 and A2780cisR, read-out: IC50 values (in the range of)

With Cc1ccc(C(C)C)cc1.[Cl-].[Ru+2].c1ccc(-c2cc3ccccc3[n-]2)nc1 [complex 3, [(p-cym)Ru(ind-py)Cl]] the pKa [1] was 10.63 ± 0.03 (λ = 255 nm), the “K9-EtG (binding constant towards 9-EtG)” value (9-ethylguanine (9-EtG)) was 71600 M⁻¹ and the “Time to reach equilibrium with second species (DMSO-adduct)” value [2] was “less than 10 min”. The “Stability in DMSO (in words)” value [2] was “stable” and the IC50 (A2780 cells; [3]) was 47.3 ± 4.7 µM.

For Cc1c(C)c(C)[c-](C)c1C.[Cl-].[Rh+3].c1ccc(-c2cc3ccccc3[n-]2)nc1 [complex 1, [Cp*Rh(ind-py)Cl]], the “pH above which changes in the UV-Vis spectra could be observed” value ([1]; pKa itself could not be calculated) was “higher than 10”, the “K9-EtG (binding constant towards 9-EtG)” value (9-ethylguanine (9-EtG)) was 25600 M⁻¹ and the “Release of the ind-py ligand (decoordination rate)” value [2] was 25%. The IC50 (A2780 cells; [3]) was 13 ± 1.7 µM, the “IC50 relative to cisplatin (fold higher / less active)” value (A2780 cells; A2780 and A2780cisR) was 3 × and the IC50 (A2780 cells; [4]) was roughly 20 µM. For the same compound, the “Selectivity towards cancerous cells (A2780) versus normal cells (PNT2)” value (A2780 cells) was 3 ×.

With Cc1c(C)c(C)[c-](C)c1C.[Cl-].[Ir+3].c1ccc(-c2cc3ccccc3[n-]2)nc1 [complex 2, [Cp*Ir(ind-py)Cl]] the “Solubility in MeOD/D2O (in words)” value (Solubility as observed) was “poor solubility”, the pKa [1] was 9.59 ± 0.09 (λ = 300 nm) and the “Release of the ind-py ligand (decoordination rate)” value [2] was 25%. For the same compound, the IC50 (A2780 cells; [3]) was 22 ± 2.5 µM, the “IC50 relative to cisplatin (fold higher / less active)” value (A2780 cells; A2780 and A2780cisR) was 3 × and the IC50 (A2780 cells; [4]) was roughly 20 µM.

For Cc1ccc(C(C)C)cc1.[Cl-].[Os+2].c1ccc(-c2cc3ccccc3[n-]2)nc1 [complex 4, [(p-cym)Os(ind-py)Cl]], the pKa [1] was 10.15 ± 0.04 (λ = 355 nm), the “K9-EtG (binding constant towards 9-EtG)” value (9-ethylguanine (9-EtG)) was 95400 M⁻¹ and the “Time to reach equilibrium with second species (DMSO-adduct)” value [2] was “less than 10 min”. The “Stability in DMSO (in words)” value [2] was “stable”, the IC50 (A2780 cells; [3]) was 18.8 ± 0.3 µM and the “IC50 relative to cisplatin (fold higher / less active)” value (A2780 cells; A2780 and A2780cisR) was 3 ×. For the same compound, the IC50 (A2780 cells; [4]) was roughly 20 µM and the “Selectivity towards cancerous cells (A2780) versus normal cells (PNT2)” value (A2780 cells) was 2 ×.
